{
  "source": "patent US7993668B2",
  "about": "“Nutrient composition and composition for prevention/mitigation of digestive tract depression” (Ajinomoto Co., Inc., priority 2004, dated 2011)",
  "test_system": "male rat",
  "assay": "Onset of diarrhea due to intragastric administration of an elemental diet in fasted rats (stool state ranked 1-4)",
  "type": "in vivo",
  "description": "According to a conventional method, under pentobarbital anesthesia, a catheter for elemental diet administration was inserted by operation in the stomach of a male rat (body weight about 270 g), and a recovery period of one week was given. For breeding, a regular rat feed and tap water were given, and free intake was allowed. After confirmation of recovery, the rat was fasted three nights to induce lower gastrointestinal function. The fasting schedule on the day before operation, the operation day and the day after operation in the case of surgery patients was imitated.\nOn the day of the test, the rats were divided into 3 groups, each rat was moved to a separate observation cage, and the onset of diarrhea due to the administration of an elemental diet shown below was observed. First, one pack (80 g) of elemental diet having the composition shown in Table 1 was dissolved in water (300 cc) and prepared to show 1 kcal/cc, which was used as elemental diet 1. Three groups of an elemental diet 1 administration group as a control, an elemental diet 2 administration group, to which 1.0 w/v % (0.88 w/v % as free glutamic acid) of sodium glutamate (MSG) was added, and an elemental diet 3 administration group, to which sodium chloride (0.35 w/v %) was added, were compared. Each test elemental diet was administered using an electric pump via the catheter inserted into the stomach. The administration was started from 10:30 AM and intermittently administered 4 times per hr at 7 mL/hr. Each test elemental diet administered to one rat was 28 mL in total. The state of stool was observed from the start of the administration until 10:30 AM the next morning and, based on the severity of the symptom, ranked in 4 levels of 1. normal stool or no stool, 2, soft stool (shape was maintained), 3, muddy stool (no shape) and 4, watery stool.\nA method according to Example 1 was employed. […] Each test elemental diet was administered using an electric pump via the catheter inserted into the stomach.\nA method according to Example 1 was employed. Three groups of an elemental diet 1 administration group having the composition shown in a separate table as a control, an elemental diet 6 administration group, to which 0.04 w/v % (0.036 w/v % as free guanylic acid) of sodium guanylate (GMP) was added, and an elemental diet 7 administration group, to which 0.20 w/v % (0.18 w/v % as free guanylic acid) was added, were compared. Each test elemental diet was administered using an electric pump via the catheter inserted into the stomach.",
  "key": {"[1]": {"conditions": "Example 1, elemental diet 3 with 0.35 w/v % sodium chloride, out of 11 cases"}, "[2]": {"conditions": "Example 3, elemental diet 6 with 0.04 w/v % sodium guanylate, out of 13 cases"}, "[3]": {"conditions": "Example 3, elemental diet 7 with 0.20 w/v % sodium guanylate, out of 13 cases"}},
  "data": [
    {"smiles": "[Cl-].[Na+]", "note": "[sodium chloride, reference compound]", "values": [
      {"measurement": "rank 1 observed", "setting": "[1]", "result": 1, "unit": "case"},
      {"measurement": "rank 3 observed", "setting": "[1]", "result": 6, "unit": "cases"}
    ]},
    {"smiles": "N[C@@H](CCC(=O)[O-])C(=O)[O-].[Na+].[Na+]", "note": "[sodium glutamate]", "values": [
      {"measurement": "improvement of diarrhea (stool rank) vs non-addition group", "setting": "Example 1, 1.0 w/v % sodium glutamate, Kruskal-Wallis, p<0.05", "result": "significant improvement effect"},
      {"measurement": "rank 2 soft stool observed", "setting": "po", "result": 1, "unit": "case"},
      {"measurement": "rank 3 muddy stool observed", "setting": "po", "result": 2, "unit": "cases"}
    ]},
    {"smiles": "Nc1nc2c(ncn2[C@@H]2O[C@H](COP(=O)([O-])[O-])[C@@H](O)[C@H]2O)c(=O)[nH]1.[Na+].[Na+]", "note": "[sodium guanylate]", "values": [
      {"measurement": "rank 1 normal stool or no stool observed", "setting": "Example 3, elemental diet 6 with 0.04 w/v % sodium guanylate (0.036 w/v % as free guanylic acid), out of 13 cases", "result": 3, "unit": "cases"},
      {"measurement": "rank 2 soft stool observed", "setting": "[2]", "result": 1, "unit": "case"},
      {"measurement": "rank 4 watery stool observed", "setting": "[2]", "result": 9, "unit": "cases"},
      {"measurement": "rank 1 normal stool or no stool observed", "setting": "Example 3, elemental diet 7 with 0.20 w/v % sodium guanylate (0.18 w/v % as free guanylic acid), out of 13 cases", "result": 3, "unit": "cases"},
      {"measurement": "rank 2 soft stool observed", "setting": "[3]", "result": 1, "unit": "case"},
      {"measurement": "rank 4 watery stool observed", "setting": "[3]", "result": 9, "unit": "cases"},
      {"measurement": "diarrhea symptom-improving effect by the addition", "setting": "Example 3, sodium guanylate 0.04 and 0.20 w/v % addition groups vs non-addition group", "result": "diarrhea symptom-improving effect was considered to be observed"}
    ]}
  ]
}
